The record followed here is patent US20240409571A1 (priority 2023, published 2024).

One assay concerns CjCst-II. It is filed as biochemical, Campylobacter jejuni.
For another assay, the system named is CjCst-I. The format is biochemical, Campylobacter jejuni.

In the case of `CC(=O)N[C@H]1[C@H](O)[C@H](NC(C)=O)C(O)O[C@@H]1CO` (stereo partly drawn) [ManNAc4NAc, 4-acetamido-4-deoxy-N-acetylmannosamine], in the assay with CjCst-II, the “Sialylation by CjCst-II, acceptor GM3ßSph” value is given as “No reaction” and the “Sialylation by CjCst-II, acceptor GM3βProN3” value is “No reaction”.
In the case of `CCCCCCCCCCCCC/C=C/[C@@H](O)[C@@H](N)CO` [GD1b sphingosine], the activity towards sialylating entry in the assay on CjCst-I is on record as “very good activity”.
